Drawing on patent publication US20260234130A1, “EP2 Antagonist Compounds” (Reservoir Neuroscience, Inc., priority 2022, published 2026), this text covers IC50 for 25 compounds.

Molecules are shown by their SMILES.

The target of this assay is T1, EP2 receptor (Homo sapiens, UniProt P43116).
T1 construct: expressed in transfected cells; host or cells: CHO-K1 cells (ATCC), transient transfection with FuGENE 6
Put plainly: EP2 potency assay (cAMP TR-FRET, LANCE Ultra cAMP kit) in transfected CHO-K1 cells stimulated with PGE2 at EC80. The class given is cell-based. The note with it: Table (V), EP2 antagonism, CHO-K1 cells expressing EP2, PGE2 at EC80. Here is the method:
Compound potency was measured using a cAMP TR-FRET assay. CHO-K1 cells (ATCC) were seeded at a density of 9.75×105 in 6 cm plates, and then on the following day cell media was changed to Opti-Mem I reduced serum media (Gibco), and transfected with a plasmid for expression of the EP2 receptor (the target receptor of interest), using the FuGENE 6 Transfection reagent (Promega). After 6 hours incubation, the cell media was replaced with F12 medium supplemented with 10% FBS and 100 U/ml Pen-Strep. 24 hours after transfection, cells were harvested and seeded at a density of 3000 cells/well in a 384 well plate to perform the cAMP assay, using the LANCE Ultra cAMP assay kit (PerkinElmer). For each test compound of interest, 10 nl/well of serially diluted test compound was added to each well, resulting in a range of 10 serially diluted compound concentrations from 10000 nM to 0.038 nM, with duplicate wells for each concentration. Plates were then centrifuged at 1000 rpm for 1 min, agitated at 600 rpm at R.T. for 2 min, and incubated at 25° C. for 5 min. The reference agonist, prostaglandin E2 (MCE), was added to each well at the appropriate concentration to reach its EC80 value. Plates were then centrifuged at 1000 rpm for 1 min, agitated at 600 rpm at R.T. for 2 min, and incubated at 25° C. for 30 min. To measure levels of cAMP, 5 μl/well of Eu-cAMP working solution and 5 μl/well of Ulight-anti-cAMP working solution were added to each well, and the plate was centrifuged at 1000 rpm for 1 min, agitated at 600 rpm at R.T. for 2 min, and incubated at 25° C. for 15 min. Levels of TR-FRET fluorescence were measured in each well using an EnVision microplate reader (excitation wavelength=337 nm and emission wavelength=615 and 665 nm). A dose-response curve was prepared by plotting percent inhibition for each compound concentration, and then IC50 was calculated by fitting a curve to the plotted values and extrapolating the IC50 concentration. […] Potency data is grouped into categories of AA (IC50<100 nM); A (IC50=100 to 500 nM); B (IC50=500 nM to […]); C (IC50=1 μM to 5 μM); and D (IC50>5 μM).
(In general: TR-FRET usually uses a lanthanide donor and a delayed reading to cut background.)

T1 sequence (P43116 whole entry): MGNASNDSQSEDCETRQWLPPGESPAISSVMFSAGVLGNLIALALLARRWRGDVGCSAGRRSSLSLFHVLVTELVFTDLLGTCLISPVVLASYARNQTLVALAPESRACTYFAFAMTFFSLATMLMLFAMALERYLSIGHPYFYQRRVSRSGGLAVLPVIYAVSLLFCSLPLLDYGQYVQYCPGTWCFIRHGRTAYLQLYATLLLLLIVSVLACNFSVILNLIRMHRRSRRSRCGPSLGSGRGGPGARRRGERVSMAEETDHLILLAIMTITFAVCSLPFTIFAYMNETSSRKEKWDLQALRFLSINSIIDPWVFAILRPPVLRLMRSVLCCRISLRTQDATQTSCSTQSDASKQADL

One may read the IC50 as the concentration at which inhibition is half-maximal. Low readings indicate greater potency, high ones weaker potency. For the compound `Fc1ccc2c(ccn2-c2cc(Cl)c3c(c2)CN(Cc2cnc(C4CC4)nc2)CCO3)c1` [II-21, 9-chloro-4-((2-cyclopropylpyrimidin-5-yl)methyl)-7-(5-fluoro-1H-indol-1-yl)-2,3,4,5-tetrahydrobenzo[f][1,4]oxazepine], the IC50 fell in the range of 500 to 1000 nM.

Take `Fc1ccc2c(ccn2-c2cc(Cl)c3c(c2)CN(Cc2cnc(-c4nnn[nH]4)nc2)CCO3)c1` [II-22, 4-((2-(1H-tetrazol-5-yl)pyrimidin-5-yl)methyl)-9-chloro-7-(5-fluoro-1H-indol-1-yl)-2,3,4,5-tetrahydrobenzo[f][1,4]oxazepine]: the half-maximal inhibitory concentration (IC50) is under 100 nM.

In turn, `Nc1cc(CN2CCOc3c(Cl)cc(-n4ccc5cc(F)ccc54)cc3C2)cnn1` [II-23, 5-((9-chloro-7-(5-fluoro-1H-indol-1-yl)-2,3-dihydrobenzo[f][1,4]oxazepin-4(5H)-yl)methyl)pyridazin-3-amine] gave a half-inhibitory concentration (IC50) of 500 to 1000 nM.

`Cc1nc(=O)[nH]c(C)c1CN1CCOc2c(Cl)cc(-n3ccc4cc(F)ccc43)cc2C1` [II-24, 5-((9-chloro-7-(5-fluoro-1H-indol-1-yl)-2,3-dihydrobenzo[f][1,4]oxazepin-4(5H)-yl)methyl)-4,6-dimethylpyrimidin-2(1H)-one] came in with an IC50 of 500 to 1000 nM.

The compound `CS(=O)(=O)NC(=O)c1ncc(CN2CCOc3c(Cl)cc(-n4ccc5cc(F)ccc54)cc3C2)cn1` [II-25, 5-((9-chloro-7-(5-fluoro-1H-indol-1-yl)-2,3-dihydrobenzo[f][1,4]oxazepin-4(5H)-yl)methyl)-N-(methylsulfonyl)pyrimidine-2-carboxamide] yielded an IC50 of under 100 nM.

For `Fc1ccc2c(ccn2-c2cc(Cl)c3c(c2)CN(Cc2cnc(C4=NCCN4)nc2)CCO3)c1` [II-26, 9-chloro-4-((2-(4,5-dihydro-1H-imidazol-2-yl)pyrimidin-5-yl)methyl)-7-(5-fluoro-1H-indol-1-yl)-2,3,4,5-tetrahydrobenzo[f][1,4]oxazepine], the IC50 is over 5000 nM.

For `Fc1ccc2c(ccn2-c2cc(Cl)c3c(c2)CN(Cc2cnc4[nH]ccc4c2)CCO3)c1` [II-27, 4-((1H-pyrrolo[2,3-b]pyridin-5-yl)methyl)-9-chloro-7-(5-fluoro-1H-indol-1-yl)-2,3,4,5-tetrahydrobenzo[f][1,4]oxazepine], the IC50 is 100 to 500 nM.

`Cc1nc(Cl)nc(C)c1CN1CCOc2c(Cl)cc(-n3ccc4cc(F)ccc43)cc2C1` [II-28, 9-chloro-4-((2-chloro-4,6-dimethylpyrimidin-5-yl)methyl)-7-(5-fluoro-1H-indol-1-yl)-2,3,4,5-tetrahydrobenzo[f][1,4]oxazepine] gave an IC50 of 1000 to 5000 nM.

The compound `COc1ncncc1CN1CCOc2c(Cl)cc(-n3ccc4cc(F)ccc43)cc2C1` [II-29, 9-chloro-7-(5-fluoro-1H-indol-1-yl)-4-((4-methoxypyrimidin-5-yl)methyl)-2,3,4,5-tetrahydrobenzo[f][1,4]oxazepine] returned a half-inhibitory concentration (IC50) of 500 to 1000 nM.

Turning to `Fc1ccc2c(ccn2-c2cc(Cl)c3c(c2)CN(Cc2cnc4[nH]ncc4c2)CCO3)c1` [II-31, 4-((1H-pyrazolo[3,4-b]pyridin-5-yl)methyl)-9-chloro-7-(5-fluoro-1H-indol-1-yl)-2,3,4,5-tetrahydrobenzo[f][1,4]oxazepine], the IC50 fell in the range of 1000 to 5000 nM.

Consider `Cn1ncc(CN2CCOc3c(Cl)cc(-n4ccc5cc(F)ccc54)cc3C2)cc1=O` [II-32, 5-((9-chloro-7-(5-fluoro-1H-indol-1-yl)-2,3-dihydrobenzo[f][1,4]oxazepin-4(5H)-yl)methyl)-2-methylpyridazin-3(2H)-one], for which the IC50 was 100 to 500 nM.

`COc1ncc(CN2CCOc3c(Cl)cc(-n4ncc5cc(F)ccc54)cc3C2)cn1` [II-33, 9-chloro-7-(5-fluoro-1H-indazol-1-yl)-4-((2-methoxypyrimidin-5-yl)methyl)-2,3,4,5-tetrahydrobenzo[f][1,4]oxazepine] had an IC50 of under 100 nM.

Consider `Nc1ncc(CN2CCOc3c(Cl)cc(-n4ccc5c(F)c(F)ccc54)cc3C2)cn1` [II-36, 5-((9-chloro-7-(4,5-difluoro-1H-indol-1-yl)-2,3-dihydrobenzo[f][1,4]oxazepin-4(5H)-yl)methyl)pyrimidin-2-amine], for which the IC50 was under 100 nM.

With `O=c1ncc(CN2CCOc3c(Cl)cc(-c4coc5cc(F)ccc45)cc3C2)c[nH]1` [II-38, 5-((9-chloro-7-(6-fluorobenzofuran-3-yl)-2,3-dihydrobenzo[f][1,4]oxazepin-4(5H)-yl)methyl)pyrimidin-2(1H)-one], the IC50 was under 100 nM.

Compound `COc1ncc(CN2CCOc3c(Cl)cc(-c4coc5c(F)c(F)ccc45)cc3C2)cn1` [II-39, 9-chloro-7-(6,7-difluorobenzofuran-3-yl)-4-((2-methoxypyrimidin-5-yl)methyl)-2,3,4,5-tetrahydrobenzo[f][1,4]oxazepine] gave an IC50 of 100 to 500 nM.

With `O=C(O)c1ncc(CN2CCOc3c(Cl)cc(-n4ccc5c(F)c(F)ccc54)cc3C2)cn1` [II-41, 5-((9-chloro-7-(4,5-difluoro-1H-indol-1-yl)-2,3-dihydrobenzo[f][1,4]oxazepin-4(5H)-yl)methyl)pyrimidine-2-carboxylic acid], the IC50 was under 100 nM.

`Fc1ccc2c(ccn2-c2cc(Cl)c3c(c2)CN(Cc2cnc(-c4nnn[nH]4)nc2)CCO3)c1F` [II-42, 4-((2-(1H-tetrazol-5-yl)pyrimidin-5-yl)methyl)-9-chloro-7-(4,5-difluoro-1H-indol-1-yl)-2,3,4,5-tetrahydrobenzo[f][1,4]oxazepine] showed an IC50 of under 100 nM.

Consider `Fc1ccc2c(-c3cc(Cl)c4c(c3)CN(Cc3cnc(-c5nnn[nH]5)nc3)CCO4)coc2c1` [II-43, 4-((2-(1H-tetrazol-5-yl)pyrimidin-5-yl)methyl)-9-chloro-7-(6-fluorobenzofuran-3-yl)-2,3,4,5-tetrahydrobenzo[f][1,4]oxazepine], for which the IC50 was under 100 nM.

On to `O=c1ncc(CN2CCOc3c(Cl)cc(-n4ncc5cc(F)ccc54)cc3C2)c[nH]1` [II-44, 5-((9-chloro-7-(5-fluoro-1H-indazol-1-yl)-2,3-dihydrobenzofuran[f][1,4]oxazepin-4(5H)-yl)methyl)pyrimidin-2(1H)-one], for which the IC50 was under 100 nM.

`COc1ncc(CN2CCOc3c(Cl)cc(-c4csc5cc(F)ccc45)cc3C2)cn1` [II-46, 9-chloro-7-(6-fluorobenzo[b]thiophen-3-yl)-4-((2-methoxypyrimidin-5-yl)methyl)-2,3,4,5-tetrahydrobenzo[f][1,4]oxazepine] returned an IC50 of 100 to 500 nM.

In turn, `O=c1ncc(CN2CCOc3c(Cl)cc(-c4csc5cc(F)ccc45)cc3C2)c[nH]1` [II-47, 5-((9-chloro-7-(6-fluorobenzo[b]thiophen-3-yl)-2,3-dihydrobenzo[f][1,4]oxazepin-4(5H)-yl)methyl)pyrimidin-2(1H)-one] displayed an IC50 of under 100 nM.

Compound `COc1ncc(CN2CCOc3c(Cl)cc(-c4coc5cc(F)ccc45)cc3C2)cn1` [II-48, 9-chloro-7-(6-fluorobenzofuran-3-yl)-4-((2-methoxypyrimidin-5-yl)methyl)-2,3,4,5-tetrahydrobenzo[f][1,4]oxazepine] displayed an IC50 of under 100 nM.

With `COc1ncc(CN2CCOc3c(Cl)cc(-n4cnc5cc(F)ccc54)cc3C2)cn1` [II-49, 9-chloro-7-(5-fluoro-1H-benzo[d]imidazol-1-yl)-4-((2-methoxypyrimidin-5-yl)methyl)-2,3,4,5-tetrahydrobenzo[f][1,4]oxazepine], the IC50 fell in the range of 500 to 1000 nM.

As to `CS(=O)(=O)Nc1cc(CN2CCOc3c(Cl)cc(-n4ccc5cc(F)ccc54)cc3C2)cnn1` [II-52, N-(5-((9-chloro-7-(5-fluoro-1H-indol-1-yl)-2,3-dihydrobenzo[f][1,4]oxazepin-4(5H)-yl)methyl)pyridazin-3-yl)methanesulfonamide], the IC50 is under 100 nM.

`CCOC(=O)c1ncc(CN2CCOc3c(Cl)cc(-n4ccc5c(F)c(F)ccc54)cc3C2)cn1` [II-74, ethyl 5-((9-chloro-7-(4,5-difluoro-1H-indol-1-yl)-2,3-dihydrobenzo[f][1,4]oxazepin-4(5H)-yl)methyl)pyrimidine-2-carboxylate] displayed an IC50 of under 100 nM.
